pIC50: −log10 of the molar value.
How the values were obtained:
[1] = Compound was evaluated for the antagonism index 10 uM; NR is No Reversion.; assay type: functional
Acetylcholinesterase [2] = target: T1, Acetylcholinesterase (Bos taurus, UniProt P23795)
T1 sequence (P23795 whole entry): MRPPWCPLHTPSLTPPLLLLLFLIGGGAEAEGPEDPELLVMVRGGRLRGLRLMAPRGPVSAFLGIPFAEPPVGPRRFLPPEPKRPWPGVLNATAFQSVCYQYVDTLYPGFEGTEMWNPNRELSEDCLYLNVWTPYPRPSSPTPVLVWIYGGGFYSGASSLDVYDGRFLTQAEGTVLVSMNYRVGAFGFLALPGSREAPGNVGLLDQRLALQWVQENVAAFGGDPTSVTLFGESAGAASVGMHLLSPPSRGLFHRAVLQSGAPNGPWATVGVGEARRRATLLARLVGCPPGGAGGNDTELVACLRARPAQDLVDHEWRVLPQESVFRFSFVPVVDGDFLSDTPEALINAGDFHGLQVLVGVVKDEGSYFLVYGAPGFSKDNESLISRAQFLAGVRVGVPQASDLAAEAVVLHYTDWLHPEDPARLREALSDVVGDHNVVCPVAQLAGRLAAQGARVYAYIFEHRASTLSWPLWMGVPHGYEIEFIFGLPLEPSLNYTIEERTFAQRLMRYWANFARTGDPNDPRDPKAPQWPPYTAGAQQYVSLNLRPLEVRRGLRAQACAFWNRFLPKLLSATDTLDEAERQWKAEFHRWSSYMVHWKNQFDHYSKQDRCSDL

Acetylcholinesterase [3] = target: T1, Acetylcholinesterase; remark: listed apart in the source
Description: Compound was evaluated for the inhibition of acetylcholinesterase activity from bovine erythrocytes after 0 minutes of incubation

Acetylcholinesterase [4] = target: T1, Acetylcholinesterase; remark: listed apart in the source
Description: Compound was evaluated for the inhibition of acetylcholinesterase of bovine erythrocytes

Cholinesterase = Cholinesterase (Homo sapiens, UniProt P06276)
Cholinesterase, sequence (P06276 whole entry): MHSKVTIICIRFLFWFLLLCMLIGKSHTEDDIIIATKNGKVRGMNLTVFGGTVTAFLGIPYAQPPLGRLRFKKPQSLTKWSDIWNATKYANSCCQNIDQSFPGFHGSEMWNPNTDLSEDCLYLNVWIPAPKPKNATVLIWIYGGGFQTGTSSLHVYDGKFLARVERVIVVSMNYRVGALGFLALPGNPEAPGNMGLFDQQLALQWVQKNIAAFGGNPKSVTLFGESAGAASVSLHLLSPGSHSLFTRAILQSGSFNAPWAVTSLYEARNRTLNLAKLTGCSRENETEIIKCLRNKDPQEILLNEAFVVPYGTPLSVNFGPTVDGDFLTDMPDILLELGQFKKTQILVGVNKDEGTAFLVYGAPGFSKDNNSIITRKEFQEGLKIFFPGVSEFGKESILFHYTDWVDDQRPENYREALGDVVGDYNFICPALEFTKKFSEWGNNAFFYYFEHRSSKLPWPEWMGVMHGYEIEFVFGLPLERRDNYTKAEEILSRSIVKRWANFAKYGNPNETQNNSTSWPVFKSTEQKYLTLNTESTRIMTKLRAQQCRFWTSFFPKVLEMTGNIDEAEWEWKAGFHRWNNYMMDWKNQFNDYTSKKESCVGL
Description: Inhibition of butyrylcholinesterase (BChE) in human serum

Acetylcholinesterase [5] = target: Acetylcholinesterase (Homo sapiens, UniProt P22303)
Acetylcholinesterase (Homo sapiens, UniProt P22303), sequence (P22303 whole entry): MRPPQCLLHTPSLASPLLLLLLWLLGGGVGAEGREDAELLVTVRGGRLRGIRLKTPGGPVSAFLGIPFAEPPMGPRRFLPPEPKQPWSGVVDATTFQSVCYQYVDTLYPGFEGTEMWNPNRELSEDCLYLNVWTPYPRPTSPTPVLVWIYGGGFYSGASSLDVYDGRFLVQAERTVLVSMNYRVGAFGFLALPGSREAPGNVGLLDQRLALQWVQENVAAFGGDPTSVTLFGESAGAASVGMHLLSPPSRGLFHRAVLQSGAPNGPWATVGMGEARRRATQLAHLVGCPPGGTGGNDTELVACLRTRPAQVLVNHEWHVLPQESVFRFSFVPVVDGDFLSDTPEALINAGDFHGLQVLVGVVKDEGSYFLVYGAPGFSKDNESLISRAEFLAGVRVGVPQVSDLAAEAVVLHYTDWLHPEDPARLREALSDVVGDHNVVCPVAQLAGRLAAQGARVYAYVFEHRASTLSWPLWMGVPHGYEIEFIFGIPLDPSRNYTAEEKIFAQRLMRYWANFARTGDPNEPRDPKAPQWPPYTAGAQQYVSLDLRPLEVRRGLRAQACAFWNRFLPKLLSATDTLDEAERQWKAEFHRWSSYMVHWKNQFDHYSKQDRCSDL
Description: Inhibition of acetylcholinesterase isolated from Human erythrocytes.

[6] = target: Cholinesterases; ACHE & BCHE (Homo sapiens) (UniProt P06276+P22303); assay: Ratio between IC50 of human BChE and human AChE; assay type: protein assay
Cholinesterases; ACHE & BCHE (Homo sapiens), sequence (P06276 whole entry, looked up): as the sequence (P06276 whole entry) above
Cholinesterases; ACHE & BCHE (Homo sapiens), sequence (P22303 whole entry, looked up): as the sequence (P22303 whole entry) above

[7] = Compound was evaluated for the antagonism index 10 uM; NR ismNo reversion; assay type: functional
[8] = Compound was evaluated for the antagonism index at 1 uM; assay type: functional

Q: For CCC1=CC2Cc3nc4cc(C)ccc4c(N)c3C(C1)C2 (stereo not drawn), which NR [1] is on record?
A: Its NR is “No reversion”.

Q: What does the source list for CC1=CC2Cc3nc4cc(Cl)ccc4c(N)c3C(C1)C2 (racemic; (-)) [HUPRINE Y]?
A: pIC50 (Acetylcholinesterase [2]): 10.61; pIC50 (Acetylcholinesterase [3]): 8.52; pIC50 (Acetylcholinesterase [4]): 8.94; pIC50 (Cholinesterase): 6.61

Q: Which results are given for CC1=CC2Cc3nc4cc(F)cc(F)c4c(N)c3C(C1)C2 (stereo not drawn)?
A: pIC50 (Acetylcholinesterase [5]): 8.66; Ratio [6]: 438; pIC50 (Cholinesterase): 6.02

Q: With CCC1=CC2Cc3nc4cccc(Cl)c4c(N)c3C(C1)C2 (stereo not drawn) as the compound, how does the pIC50 (Acetylcholinesterase [5]) read?
A: The pIC50 was 7.93.

Q: And the pIC50 (Cholinesterase)?
A: The pIC50 was 6.48.

Q: What does the source list for CC1=C[C@@H]2Cc3nc4cc(F)ccc4c(N)c3[C@H](C1)C2?
A: pIC50 (Acetylcholinesterase [5]): 8.34; Ratio [6]: 43

Q: With CCC1=CC2Cc3nc4cc(Cl)ccc4c(N)c3[C@@H](C1)C2 (mixture of isomers; (+)) as the compound, how does the NR [7] read?
A: Its NR is “No reversion”.

Q: What does the source list for CC1=CC2Cc3nc4cc(Cl)ccc4c(N)c3C(C1)C2 (stereo in doubt) [HUPRINE Y]?
A: pIC50 (Acetylcholinesterase [2]): 9.19; pIC50 (Acetylcholinesterase [3]): 8.51; pIC50 (Acetylcholinesterase [4]): 8.37; pIC50 (Cholinesterase): 6.63

Q: With CCC1=CC2Cc3nc4cc(C)cc(C)c4c(N)c3C(C1)C2 (stereo not drawn) as the compound, how does the pIC50 (Acetylcholinesterase [5]) read?
A: The pIC50 was 8.30.

Q: And the Ratio [6]?
A: Its Ratio is 6.57.

Q: And the pIC50 (Acetylcholinesterase [4])?
A: The pIC50 was 8.44.

Q: What about the pIC50 (Cholinesterase) of the same compound?
A: Its pIC50 is 7.49.

Q: With C/C=C1\[C@H]2C=C(C)C[C@]1(N)c1ccc(=O)[nH]c1C2 [HUPERZINE A] as the compound, how does the pIC50 (Cholinesterase) read?
A: The pIC50 was under 5.00.

Q: With CCC1=CC2Cc3nc4cc(Cl)ccc4c(N)c3[C@@H](C1)C2 (stereo in doubt) [HUPRINE X] as the compound, how does the pIC50 (Acetylcholinesterase [2]) read?
A: Its pIC50 is 9.64.

Q: And the pIC50 (Acetylcholinesterase [3])?
A: The pIC50 was 8.48.

Q: What about the pIC50 (Acetylcholinesterase [5]) of the same compound?
A: Its pIC50 is 9.12.

Q: What about the pIC50 (Acetylcholinesterase [4]) of the same compound?
A: The pIC50 was 8.56.

Q: What about the pIC50 (Cholinesterase) of the same compound?
A: Its pIC50 is 7.80.

Q: With CCC1=CC2Cc3nc4cc(Cl)ccc4c(N)c3[C@@H](C1)C2 (mixture of isomers; (+)) [HUPRINE X] as the compound, how does the pIC50 (Acetylcholinesterase [2]) read?
A: The pIC50 was 6.46.

Q: And the pIC50 (Acetylcholinesterase [3])?
A: The pIC50 was 6.62.

Q: And the pIC50 (Acetylcholinesterase [5])?
A: Its pIC50 is 7.64.

Q: And the pIC50 (Acetylcholinesterase [4])?
A: Its pIC50 is 6.40.

Q: What about the pIC50 (Cholinesterase) of the same compound?
A: The pIC50 was 7.23.

Q: For CC1=CC2Cc3nc4cc(Cl)ccc4c(N)c3C(C1)C2 (racemic; (+)), which inhibition [8] is on record?
A: The inhibition was 22.1%.

Q: With CCC1=CC2Cc3nc4cc(Cl)cc(Cl)c4c(N)c3C(C1)C2 (stereo not drawn) as the compound, how does the pIC50 (Acetylcholinesterase [5]) read?
A: Its pIC50 is 8.86.

Q: And the pIC50 (Acetylcholinesterase [4])?
A: The pIC50 was 7.40.

Q: And the pIC50 (Cholinesterase)?
A: The pIC50 was 5.92.

Q: With CCC1=CC2Cc3nc4cc(Cl)ccc4c(N)c3[C@@H](C1)C2 (mixture of isomers; (-)) [HUPRINE X] as the compound, how does the pIC50 (Acetylcholinesterase [2]) read?
A: The pIC50 was 10.17.

Q: And the pIC50 (Acetylcholinesterase [3])?
A: Its pIC50 is 8.64.

Q: And the pIC50 (Acetylcholinesterase [5])?
A: Its pIC50 is 9.49.

Q: And the pIC50 (Acetylcholinesterase [4])?
A: The pIC50 was 8.89.

Q: What about the pIC50 (Cholinesterase) of the same compound?
A: The pIC50 was 6.80.

Q: With CC1=CC2Cc3nc4cccc(F)c4c(N)c3C(C1)C2 (stereo not drawn) as the compound, how does the pIC50 (Acetylcholinesterase [5]) read?
A: Its pIC50 is 7.45.

Q: What about the Ratio [6] of the same compound?
A: Its Ratio is 15.3.

Q: Which results are given for CCC1=CC2Cc3nc4cc(F)cc(F)c4c(N)c3C(C1)C2 (stereo not drawn)?
A: pIC50 (Acetylcholinesterase [5]): 8.75; pIC50 (Acetylcholinesterase [4]): 8.58; pIC50 (Cholinesterase): 6.71

Q: With CC1=CC2Cc3nc4cc(Cl)ccc4c(N)c3C(C1)C2 (racemic; (+)) [HUPRINE Y] as the compound, how does the pIC50 (Acetylcholinesterase [4]) read?
A: Its pIC50 is 7.19.

Q: What about the pIC50 (Cholinesterase) of the same compound?
A: The pIC50 was 6.82.

Reference: ChEMBL document CHEMBL1133449 (J Med Chem, 2000)
